Earlier results as cited in patent US8410096B2, “Antitumor agent, kit and method of treating cancer” (Shizuoka Prefecture, priority 2008, dated 2013).

Test system: 5-FU decomposition
Conditions: compared with uracil

SMILES: Oc1cc(O)c(Cl)cn1 [gimeracil, 2,4-dihydroxy-5-chloropyridine]
- 5-FU decomposition inhibitory action relative to uracil: about 200 times
